Molecular target: T1, Renin (Homo sapiens, UniProt P00797)
T1 sequence (P00797 whole entry): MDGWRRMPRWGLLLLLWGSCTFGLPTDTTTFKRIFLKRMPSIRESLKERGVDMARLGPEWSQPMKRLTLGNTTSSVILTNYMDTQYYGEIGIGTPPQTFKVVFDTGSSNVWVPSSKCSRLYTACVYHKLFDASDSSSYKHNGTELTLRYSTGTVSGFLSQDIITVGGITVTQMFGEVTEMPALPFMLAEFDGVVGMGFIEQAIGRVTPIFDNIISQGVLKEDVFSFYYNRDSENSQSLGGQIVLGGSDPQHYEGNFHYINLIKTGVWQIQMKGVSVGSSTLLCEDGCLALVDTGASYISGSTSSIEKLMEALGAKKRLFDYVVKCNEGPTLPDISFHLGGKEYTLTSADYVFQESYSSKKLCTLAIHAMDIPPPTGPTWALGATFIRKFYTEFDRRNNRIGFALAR
Experiment: Component acylation rate constant by the compound against Renin was determined

Row | SMILES | koff
1 | CC(C)C[C@H](O)[C@H](O)[C@H](CC1CCCCC1)NC(=O)[C@@H](CC(=O)N(CC(=O)N(C)CCc1ccccn1)CC1CCCCC1)Cc1csc(N)n1 [2-(2-Amino-thiazol-4-ylmethyl)-N*4*-cyclohexylmethyl-N*1*-(1-cyclohexylmethyl-2,3-dihydroxy-5-methyl-hexyl)-N*4*-{[methyl-(2-pyridin-2-yl-ethyl)-carbamoyl]-methyl}-succinamide(BILA 2157 BS)] | 0.00028 s⁻¹
2 | COC1(CN(CC(=O)N(C)CCc2ccccn2)C(=O)C[C@@H](Cc2csc(N)n2)C(=O)N[C@@H](CC2CCCCC2)[C@@H](O)[C@@H](O)CC(C)C)CCCCC1 [(R)-2-(2-Amino-thiazol-4-ylmethyl)-N*1*-((1S,2R,3S)-1-cyclohexylmethyl-2,3-dihydroxy-5-methyl-hexyl)-N*4*-(1-methoxy-cyclohexylmethyl)-N*4*-{[methyl-(2-pyridin-2-yl-ethyl)-carbamoyl]-methyl}-succinamide] | 0.00175 s⁻¹
3 | CC(C)C[C@H](O)[C@H](O)[C@H](CC1CCCCC1)NC(=O)[C@@H](CC(=O)N(CC(=O)N(C)CCc1ccccn1)CC1(C)CCCCC1)Cc1csc(N)n1 [(R)-2-(2-Amino-thiazol-4-ylmethyl)-N*1*-((1S,2R,3S)-1-cyclohexylmethyl-2,3-dihydroxy-5-methyl-hexyl)-N*4*-(1-methyl-cyclohexylmethyl)-N*4*-{[methyl-(2-pyridin-2-yl-ethyl)-carbamoyl]-methyl}-succinamide] | 0.000569 s⁻¹
4 | CC(C)C[C@H](O)[C@H](O)[C@H](CC1CCCCC1)NC(=O)[C@@H](CC(=O)N(CC(=O)N(C)CCN(C)C(=O)N1CCOCC1)[C@@H](C)c1ccccc1)Cc1csc(N)n1 [(R)-2-(2-Amino-thiazol-4-ylmethyl)-N*1*-((1S,2R,3S)-1-cyclohexylmethyl-2,3-dihydroxy-5-methyl-hexyl)-N*4*-[(methyl-{2-[methyl-(morpholine-4-carbonyl)-amino]-ethyl}-carbamoyl)-methyl]-N*4*-((S)-1-phenyl-ethyl)-succinamide] | 0.00133 s⁻¹

Other lines, results leading:

Row | koff | SMILES
5 | 0.00135 s⁻¹ | CC(C)C[C@H](O)[C@H](O)[C@H](CC1CCCCC1)NC(=O)[C@@H](CC(=O)N(CC(=O)N(C)CCc1ccccn1)[C@@H](C)c1ccccc1)Cc1csc(N)n1 [(R)-2-(2-Amino-thiazol-4-ylmethyl)-N*1*-((1S,2R,3S)-1-cyclohexylmethyl-2,3-dihydroxy-5-methyl-hexyl)-N*4*-{[methyl-(2-pyridin-2-yl-ethyl)-carbamoyl]-methyl}-N*4*-((S)-1-phenyl-ethyl)-succinamide]
6 | 0.00481 s⁻¹ | CC(C)C[C@H](O)[C@H](O)[C@H](CC1CCCCC1)NC(=O)[C@@H](CC(=O)N(CC(=O)N(C)CCN1CCOCC1)[C@@H](C)c1ccccc1)Cc1csc(N)n1 [(R)-2-(2-Amino-thiazol-4-ylmethyl)-N*1*-((1S,2R,3S)-1-cyclohexylmethyl-2,3-dihydroxy-5-methyl-hexyl)-N*4*-{[methyl-(2-morpholin-4-yl-ethyl)-carbamoyl]-methyl}-N*4*-((S)-1-phenyl-ethyl)-succinamide]
7 | 0.0013 s⁻¹ | CC(C)C[C@H](O)[C@H](O)[C@H](CC1CCCCC1)NC(=O)[C@@H](CC(=O)N(CC(=O)N(C)CCC(=O)N1CCOCC1)[C@@H](C)c1ccccc1)Cc1csc(N)n1 [(R)-2-(2-Amino-thiazol-4-ylmethyl)-N*1*-((1S,2R,3S)-1-cyclohexylmethyl-2,3-dihydroxy-5-methyl-hexyl)-N*4*-{[methyl-(3-morpholin-4-yl-3-oxo-propyl)-carbamoyl]-methyl}-N*4*-((S)-1-phenyl-ethyl)-succinamide]
8 | 0.000234 s⁻¹ | CC(C)C[C@H](O)[C@H](O)[C@H](CC1CCCCC1)NC(=O)[C@@H](CC(=O)N(CC(=O)N(C)CCc1ccccn1)CC1CCCCCC1)Cc1csc(N)n1 [(R)-2-(2-Amino-thiazol-4-ylmethyl)-N*4*-cycloheptylmethyl-N*1*-((1S,2R,3S)-1-cyclohexylmethyl-2,3-dihydroxy-5-methyl-hexyl)-N*4*-{[methyl-(2-pyridin-2-yl-ethyl)-carbamoyl]-methyl}-succinamide]

— BindingDB's records for doi:10.1021/jm00010a019 (Boehringer Ingelheim Pharmaceuticals, 1995)
